Results published in US11230545B2, “Heterocyclic compound” (Takeda Pharmaceutical Company Limited, priority 2018, dated 2022).

Legend:
[1] = molecular target: T1, recombinant human MALT1 (Homo sapiens, UniProt Q9UDY8); test: Measurement of MALT1 enzyme inhibitory activity; assay type: biochemical; details: read-out: MALT1 enzyme inhibition rate (%) at 3 μM compound
T1 construct: to form a human MALT1 (340-789aa) dimer; His tag (from pET28a, N-terminal) (N); yeast GCN4 leucine zipper (251-281aa), fusion partner for dimerisation (N); translates to GSGSGS), between GCN4 zipper and MALT1 (N); His tag (C-terminal) (C); made in house; host or cells: E. coli BL21 (DE3)
Method: On the human MALT1 gene, PCR was carried out using GC-030-[…] (pENTR221/MALT1, GeneCopoeia) as a template with primers having BamH I restriction enzyme at the N-terminal and Not I restriction enzyme at the C-terminal to form a human MALT1 (340-789aa) dimer. […] Both of the obtained fragments were treated with the restriction enzymes, and inserted between Nde I and Not I of a pET28a (Novagen) vector to yield a recombinant human MALT1 protein expression vector pET28a/His-LZ-hMALT1v1 (340-789)-His. The recombinant human MALT1 protein was prepared by transforming the expression plasmid prepared as above with ECOS Competent E. coli BL21 (DE3) (Nippon Gene Co., Ltd.). Escherichia coli obtained by transformation was inoculated into 300 mL of LB medium (1% tryptone, 0.5% yeast extract, 0.5% sodium chloride, 0.01% ampicillin) and cultured at 30° C. for 16 hours. […] Furthermore, culturing was carried out for 16 hours to induce expression of human MALT1 protein. After completion of the culture, the culture solution was centrifuged at 5,000 rpm for 10 minutes. […] This crushed liquid was centrifuged (15,300×G, 30 min, TOMY MX-301), and the obtained supernatant was passed through and adsorbed to a Ni-NTA Superflow (QIAGEN) column previously equilibrated with 50 mM Tris-HCl pH 8.0, 300 mM NaCl, 5 mM DTT and 10% glycerol, followed by elution in a buffer containing 50 mM Tris-HCl pH 8.0, 300 mM NaCl, 5 mM DTT, 10% glycerol and 250 mM imidazole. […] The prepared protein was stored at -30° C., and the protein concentration was measured with a BCA Protein Assay Kit (PIERCE) using BSA as a standard. […] Subsequently, 2 μL of a purified recombinant human MALT1 enzyme solution was added, followed by incubation for 60 minutes at room temperature. To the mixture were added 2 μL of a substrate solution (75 μM Ac-LRSR-AFC (SM Biochemicals), 20 mM HEPES (Dojin Laboratories), 10 mM KCl (Wako Pure Chemical Industries, Ltd.), 1.5 mM MgCl2 (Sigma-Aldrich), 1 mM EDTA (pH 8.0) (Nippon Gene Co., Ltd.), 0.01% Triton X-100 (Sigma-Aldrich) and 1 mM DTT (Wako Pure Chemical Industries, Ltd.), followed by incubation for 60 minutes at room temperature. The fluorescence values of excitation 400 nm and emission 485 nm immediately after substrate addition and after enzymatic reaction were measured with a plate reader Envision (PerkinElmer), and the fluorescence values increased by enzymatic reaction were used for calculation of the inhibition rate (%).

[2] = test system: Human diffuse large-cell B-cell lymphoma cells OCI-Ly3; test: Antitumor effect on OCI-Ly3 cell-bearing cancer model; assay type: in vivo; details: average tumor volume increase ratio; 10 mg/kg orally twice daily for 3 weeks; NOG female mice, OCI-Ly3 subcutaneous
Method: Human diffuse large-cell B-cell lymphoma cells OCI-Ly3 (DSMZ, German Collection of Microorganisms and Cell Cultures) were suspended in a Matrigel (BD Biosciences):HBSS (Thermo Fisher Scientific)=1:1 solution, and 1×10^7 cells were transplanted subcutaneously into the abdomen of NOG female mice (CLEA Japan, Inc.). The tumor diameter of the engrafted tumor was measured, and the tumor volume was calculated by the following formula. Tumor volume=major axis×minor axis×minor axis×(½)
Individuals with the engrafted tumor having a tumor volume of about 120 mm^3 were selected, and 6 animals per group were used in the experiment. A suspension of the test compound in 0.5% methylcellulose solution (Fujifilm Wako Pure Chemical Corporation) was orally administered at a dose of 10 mg/kg (10 mL/kg) twice daily for 3 weeks. The tumor volume was measured on the day before the start of administration and every 3 to 4 days over time, and the tumor diameter was finally measured the day after the end of administration for 21 days to calculate the tumor volume. The tumor growth of the test compound-administered group compared with the control-administered group was calculated by the following formula as an average tumor volume increase ratio T/C. T/C=((Tumor volume after the end of administration for the test compound-administered group−Tumor volume of the day before the start of administration for the test compound-administered group)/(Tumor volume after the end of administration for the control-administered group−Tumor volume of the day before the start of administration for the control-administered group))×100

[3] = test system: OCI-Ly3 cells; test: Measurement of growth inhibitory activity using OCI-Ly3 cells; assay type: cell-based; details: Homo sapiens, 144 h, 3 μm compound, 6 days, read-out: Cell growth inhibition rate (%) at 3 μm compound
Method: OCI-Ly3 cells were seeded in a cell culture medium IMDM (Fujifilm Wako Pure Chemical Corporation) containing 20% FCS (fetal calf serum, Thermo Fisher Scientific) and monothioglycerol (Fujifilm Wako Pure Chemical Corporation) so as to be at 1.25×10^3 cells/well on a 96-well plate. Cell Titer-Glo solution (Promega) was added to cells to which the test compound had not been added, followed by stirring at room temperature for 15 minutes. Subsequently, the luminescence value was measured with Envision (PerkinElmer) on the day of seeding. Cells to which the test compound dissolved in dimethyl sulfoxide (Fujifilm Wako Pure Chemical Corporation) had been added were allowed to stand in a CO2 incubator (37° C.) for 6 days. Subsequently, the luminescence value was measured in the same manner. The inhibition rate (%) of the test compound on OCI-Ly3 cell growth was calculated by the following formula. Cell growth inhibition rate (%)=(1−(Luminescent value on day 6 of test compound treatment−Luminescent value before test compound treatment)/(Luminescent value on day 6 without compound addition−Luminescent value before compound treatment))×100

T1 sequence (Q9UDY8 340-789): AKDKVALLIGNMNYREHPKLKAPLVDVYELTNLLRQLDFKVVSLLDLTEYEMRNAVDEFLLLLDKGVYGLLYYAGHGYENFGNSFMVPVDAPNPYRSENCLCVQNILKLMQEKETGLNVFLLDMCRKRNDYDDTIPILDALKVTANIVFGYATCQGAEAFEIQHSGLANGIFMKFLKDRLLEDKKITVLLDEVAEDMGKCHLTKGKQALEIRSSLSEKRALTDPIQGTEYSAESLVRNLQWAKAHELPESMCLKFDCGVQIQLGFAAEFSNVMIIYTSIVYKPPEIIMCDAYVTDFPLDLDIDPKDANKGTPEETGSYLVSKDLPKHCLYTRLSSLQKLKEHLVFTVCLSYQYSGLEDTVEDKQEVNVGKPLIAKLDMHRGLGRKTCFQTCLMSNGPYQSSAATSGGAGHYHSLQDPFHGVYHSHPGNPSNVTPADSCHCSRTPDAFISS
T1 sequence (P03069 251-281 partner limits assumed): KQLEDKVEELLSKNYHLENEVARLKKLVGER

| SMILES | inhibition at 3 µM [1] [%] | T/C (%) [2] [%] | inhibition at 3 µM [3] [%] |
| --- | --- | --- | --- |
| CO[C@@H](C)c1c(NC(=O)Nc2cnc(OC(F)F)c(Cl)c2)cnn2cc(C)nc12 [Example 1, (S)—N-(5-Chloro-6-(difluoromethoxy)pyridin-3-yl)-N′-(8-(1-methoxyethyl)-2-methylimidazo[1,2-b]pyridazin-7-yl)urea] | 104 | 13.4 | 96 |
| CO[C@@H](C)c1c(NC(=O)Nc2cnc(-n3nccn3)c(Cl)c2)cnn2cc(C)nc12 [Example 4, (S)—N-(5-Chloro-6-(2H-1,2,3-triazol-2-yl)pyridin-3-yl)-N′-(8-(1-methoxyethyl)-2-methylimidazo[1,2-b]pyridazin-7-yl)urea] | 111 | 43.3 | 97 |
| CO[C@@H](C)c1c(NC(=O)Nc2cnc(-n3nccn3)c(C(F)(F)F)c2)cnc2ccc(C)nc12 [Example 3, (S)—N-(4-(1-Methoxyethyl)-6-methyl-1,5-naphthyridin-3-yl)-N′-(6-(2H-1,2,3-triazol-2-yl)-5-(trifluoromethyl)pyridin-3-yl)urea] | 101 | 38.7 | 99 |
| CO[C@@H](C)c1c(NC(=O)Nc2cnc(-n3nccn3)c(C(F)(F)F)c2)cnc2ccc(Cl)nc12 [Example 2, (S)—N-(6-Chloro-4-(1-methoxyethyl)-1,5-naphthyridin-3-yl)-N′-(6-(2H-1,2,3-triazol-2-yl)-5-(trifluoromethyl)pyridin-3-yl)urea] | 99 | 2.0 | 97 |
